Experimental findings from patent US8063040B2, “Triazabenzo[E]azulene derivatives for the treatment of tumors” (Merck Patent Gesellschaft Mit Beschrankter Haftung, priority 2006, dated 2011) are described below.

The subject of the assay is TGF-beta. As to the kind of experiment: Elimination of TGF-beta-mediated growth inhibition in Mv1Lu cells (Crystal Violet staining). Type of assay: cell-based. Conditions: lung epithelial cell line Mv1Lu, 1 ng/ml TGF-beta, 0.5% FCS, two days, absorption at 550 nm. The procedure: In-vitro (Enzyme) Assay for Determination of the Efficacy of the Inhibitors of the Inhibition of TGF-Beta-Mediated Effects
As an example, the ability of the inhibitors to eliminate TGF-beta-mediated growth inhibition is tested.
Cells of the lung epithelial cell line Mv1Lu are sown in a defined cell density in a 96-well microtitre plate and cultivated overnight under standard conditions. Next day, the medium is replaced by medium which comprises 0.5% of FCS and 1 ng/ml of TGF-beta, and the test substances are added in defined concentrations, generally in the form of dilution series with 5-fold steps. The concentration of the solvent DMSO is constant at 0.5%. After a further two days, Crystal Violet staining of the cells is carried out. After extraction of the Crystal Violet from the fixed cells, the absorption is measured spectrophotometrically at 550 nm. It can be used as a quantitative measure of the adherent cells present and thus of the cell proliferation during the culture.

Structures can show the parent of a compound that is named as a salt.

A word on the IC50: it is the concentration needed to halve the response being measured. Lower therefore signals greater potency in that assay. In the case of `Cc1cccc(-c2nnc3n2-c2ccc(O)cc2CCC3C)n1` (centres unmarked) [Compound A2, 8-hydroxy-4-methyl-1-(6-methylpyridin-2-yl)-5,6-dihydro-4H-2,3,10b-triazabenzo[e]azulene], the IC50 stood at 0.2 µM.

Where the note is “Mv1Lu, 48 h”, `COc1ccc2c(c1)C(C)CCc1nnc(-c3cccc(C)n3)n1-2` (centres unmarked) [Compound A18, 8-Methoxy-6-methyl-1-(6-methylpyridin-2-yl)-5,6-dihydro-4H-2,3,10b-triazabenzo[e]azulene, trifluoroacetate] gave an IC50 of 3.3 µM.

Regarding `COc1ccc2c(c1)CCC(C)c1nnc(-c3cccc(C)n3)n1-2` (centres unmarked) [Compound A1, 8-methoxy-4-methyl-1-(6-methylpyridin-2-yl)-5,6-dihydro-4H-2,3,10b-triazabenz[e]azulene], the midpoint of inhibition (Mv1Lu, 48 h), the IC50, lay at 3.9 µM.

Consider `Cc1cccc(-c2nnc3n2-c2ccc(O)cc2CCC3C)n1` (centres unmarked) [Compound A19, 8-Hydroxy-4-methyl-1-(6-methylpyridin-2-yl)-5,6-dihydro-4H-2,3,10b-triazabenzo[e]azulene], for which the half-maximal inhibitory concentration (IC50) worked out at 2.5 µM.

`Cc1cccc(-c2nnc3n2-c2ccc(Cl)cc2C(C)CC3)n1` (centres unmarked) [Compound A4, 8-chloro-6-methyl-1-(6-methylpyridin-2-yl)-5,6-dihydro-4H-2,3,10b-triazabenzo[e]azulene] gave a concentration for half-maximal inhibition (IC50) (Mv1Lu, 48 h) of 9.9 µM.
